# What was measured:
# HDAC10 = target: T1, HDAC10 (Homo sapiens, UniProt Q969S8); assay: In-cell target engagement (NanoBRET) assay, NanoLuc-HDAC10; assay type: binding
# T1 construct: NanoLuc®-HDAC10 FL Fusion Vector; host or cells: HeLa cells, stably transfected
# T1 sequence (Q969S8 1-669): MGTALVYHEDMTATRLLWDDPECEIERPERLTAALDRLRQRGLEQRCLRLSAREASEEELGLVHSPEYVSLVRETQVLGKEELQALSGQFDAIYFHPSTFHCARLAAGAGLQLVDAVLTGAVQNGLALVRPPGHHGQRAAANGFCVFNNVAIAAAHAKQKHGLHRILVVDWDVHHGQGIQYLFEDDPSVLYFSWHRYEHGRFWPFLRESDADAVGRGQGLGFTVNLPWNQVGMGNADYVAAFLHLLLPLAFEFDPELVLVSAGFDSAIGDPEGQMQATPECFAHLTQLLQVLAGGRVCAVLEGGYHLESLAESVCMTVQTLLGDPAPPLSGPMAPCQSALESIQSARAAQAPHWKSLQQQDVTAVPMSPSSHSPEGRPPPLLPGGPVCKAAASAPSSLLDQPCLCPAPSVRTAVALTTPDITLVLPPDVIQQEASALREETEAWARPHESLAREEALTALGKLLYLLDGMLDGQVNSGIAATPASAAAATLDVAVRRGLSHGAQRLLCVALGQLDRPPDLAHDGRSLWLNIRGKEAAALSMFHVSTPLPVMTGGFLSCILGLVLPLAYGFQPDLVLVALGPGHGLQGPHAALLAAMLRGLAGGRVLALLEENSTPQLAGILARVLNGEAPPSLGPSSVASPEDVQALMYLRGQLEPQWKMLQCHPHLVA
# Text: We next investigated if accumulation of lysosomes was also affected by inhibition of HDAC6 and HDAC10, respectively. […] Since no bona fide downstream target protein of HDAC10 has been described to date, we performed an in-cell target engagement (NanoBRET) assay that measures competitive displacement of a fluorescently-labeled tracer from NanoLuc® Luciferase coupled HDAC10 enzyme. […] To exclude that lysosomal accumulation after treatment with HDAC6/10 inhibitors was caused by off-target inhibition of class I HDACs, we treated BE(2)-C cells with 1 mM class I HDAC inhibitor valproic acid (VPA).
# HeLa cells, stabily transfected with NanoBRET plasmids NanoLuc®-HDAC6 FL Fusion Vector and NanoLuc®-HDAC10 FL Fusion Vector (Promega, Madison, WI, USA) were seeded at 20.000 cells/well in white 96 well plates. Without further incubation, tracer (0.3 µM) and drugs were added in separate steps and plates were placed in a tissue culture incubator for 2 h. For NanoBRET quantification, plates were put at room temperature for 10 minutes. Nanoglow substrate, diluted in OptiMEM without phenol red, was added and measured within 10 minutes in an OPTIMA plate reader (460 nm emission for donor and 610LP filter for acceptor). The BRET signal was calculated by the ratio of acceptor signal and donor signal.
# BE(2)-C cells [1] = assay: Flow cytometric analysis of γH2A.X staining (DNA double-strand breaks); assay type: cell-based, human; conditions: 24 h, tubastatin A 7.5 µM, vacuolin-1 10 µM
# Procedure: Cells were dissociated from dishes using non-enzymatic cell dissociation reagent for five minutes. Cells were counted using a ViCell XR automatic cell counter (Beckmann Coulter) and 2.5 ∗ 10^5 cells were transferred into a pre-cooled 96-well round bottom plate (TPP92097). […] Cells were washed three times in FACS buffer (5% FBS in PBS) after each antibody incubation step. For evaluation of DNA double-strand breaks, cells were detached from dishes using trypsin, counted using a ViCell XR automatic cell counter (Beckmann Coulter) and transferred into a pre-cooled 96-well round bottom plate (4 ∗ 10^6 cells/well). Cells were fixed and permeabilized using the eBioscience^TM Foxp3/Transcription Factor Staining Buffer Set (Thermo Fisher Scientific). […] Cells were washed three times in 1× permeabilization buffer after each antibody incubation step and fluorescence was quantified on a BD FACSCanto II platform.
# BE(2)-C cells [2] = assay: Alkaline single cell gel electrophoresis assay (comet assay); assay type: cell-based, human; conditions: 18 h
# Procedure: BE(2)-C cells were treated with the HDAC6/10 inhibitor tubastatin A alone or in combination with the genotoxic drug doxorubicin (100 ng/ml doxorubicin, 7.5 µM tubastatin) for 18 h. Untreated cell aliquots and cells irradiated with 5 Gy (^137Cs radiation source, dose rate of 1 Gy min^−1) were used as negative and positive controls, respectively. Cells were subsequently analyzed by the alkaline comet assay as previously described[68],[69] with some modifications. In brief, the cells were mixed with 0.7% low-melting temperature agarose (Biozym), plated on two-well slides (Trevigen), and subsequently lysed overnight. Single cell electrophoresis was performed at 4 °C. Analysis of DNA damage was accomplished by fluorescence microscopy using a fully automated cell scanning system Metafer-4 (Metasystems) as described in[70]. DNA damage was assessed as “Tail DNA in %”. Statistical evaluation of two differently treated cell aliquots was performed with the Mann Whitney test using GraphPad Prism version 5.04 for Windows.
# [3] = system: proliferating human fibroblasts; assay: Cell viability, automated trypan blue exclusion, fibroblasts; assay type: cell-based; conditions: 7.5 µM tubastatin A
# Procedure: Adherent cell lines were trypsinized and cells were pooled with corresponding supernatant, centrifuged and resuspended in 1.5 ml cell culture media. Cell viability was measured by automated trypan blue staining with the Vi-Cell XR Cell Viability Analyzer from Beckman Coulter (Krefeld, Germany).
# BE(2)-C cells [4] = assay: Flow cytometric analysis of cell surface LAMP-1 (lysosomal exocytosis); assay type: cell-based, human; conditions: 6 h tubastatin A 7.5 µM, bufexamac 30 µM, tubacin 7.5 µM, vacuolin-1 10 µM 1 h
# Procedure: Cells were dissociated from dishes using non-enzymatic cell dissociation reagent for five minutes. Cells were counted using a ViCell XR automatic cell counter (Beckmann Coulter) and 2.5 ∗ 10^5 cells were transferred into a pre-cooled 96-well round bottom plate (TPP92097). Cells were stained for 1.5–2 hours on ice with primary anti P-gp (Biozol ABA-AB00143-1.1), LAMP-1 (H4A3, DHSB) antibody or isotype control (DLN-05794, Dianova, […]) and for 1 hour with APC-labeled secondary antibody (Dianova 115-136-068). Cells were washed three times in FACS buffer (5% FBS in PBS) after each antibody incubation step. For evaluation of DNA double-strand breaks, cells were detached from dishes using trypsin, counted using a ViCell XR automatic cell counter (Beckmann Coulter) and transferred into a pre-cooled 96-well round bottom plate (4 ∗ 10^6 cells/well). Cells were fixed and permeabilized using the eBioscience^TM Foxp3/Transcription Factor Staining Buffer Set (Thermo Fisher Scientific). Cells were stained for 1.5 h with Phospho-Histone H2A.X (S139) primary antibody (CST #9718) and for 1 h in Alexa-488-labeled secondary antibody (ThermoFisher A-11008). Cells were washed three times in 1× permeabilization buffer after each antibody incubation step and fluorescence was quantified on a BD FACSCanto II platform.
structure (smiles),measurement,setting,value
CN1CCc2c(c3ccccc3n2Cc2ccc(C(=O)NO)cc2)C1 [tubastatin A],affinity towards HDAC10 (NanoBRET tracer displacement),HDAC10,strong affinity towards HDAC10
same,"DSBs (γH2A.X), co-treatment with doxorubicin compared to doxorubicin alone",BE(2)-C cells [1]; 100 ng/ml doxorubicin,significantly increased the amount of DSBs
same,"DSBs (γH2A.X), treatment alone in the absence of doxorubicin",BE(2)-C cells [1]; verapamil 10 µM,increase DSBs
same,"DSBs in comet assays, addition to doxorubicin treatment",BE(2)-C cells [2]; tubastatin A 7.5 µM + doxorubicin 100 ng/ml,substantially increased doxorubicin induced DSBs
same,"DSBs in comet assays, single treatment",BE(2)-C cells [2]; tubastatin A 7.5 µM or doxorubicin 100 ng/ml,increased DSBs only trend-wise
same,"cell death in proliferating fibroblasts, combination with 100 ng/ml doxorubicin, 24 h or 48 h",[3],did not induce significant cell death
same,cell surface LAMP-1 levels,BE(2)-C cells [4],reduced surface LAMP-1 levels
